Experimental data reported in ChEMBL document CHEMBL1201862, “PubChem BioAssay data set” (2004).
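In this assay, cells in 96-well plates receive the compound at five concentrations for 48 hours. Endpoints are linearly interpolated between the surrounding concentrations. Abbreviation: GI50, concentration required for 50% inhibition of growth.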 Activity calls are given as the source filed them. Rule as the data show it: active = GI50 up to about 1.1 µM and inactive = higher.

Tests used:
Assay in all cases: NCI tumour cell line growth inhibition, 48 h
[1] = test system: SW-620
[2] = test system: NCI-H522
[3] = test system: RXF 393
[4] = test system: SR
[5] = test system: HOP-62
[6] = test system: MOLT-4
[7] = test system: Malme-3M
[8] = test system: NCI/ADR-RES
[9] = test system: MDA-MB-435
[10] = test system: NCI-H226
[11] = test system: PC-3
[12] = test system: MDA-N
[13] = test system: SF-268
[14] = test system: SK-OV-3
[15] = test system: CCRF-CEM
[16] = test system: HT-29
[17] = test system: SK-MEL-2
[18] = test system: ACHN
[19] = test system: SNB-19
[20] = test system: 786-0

| Compound | GI50 [1] | GI50 [2] | GI50 [3] | GI50 [4] | GI50 [5] | GI50 [6] | GI50 [7] | GI50 [8] | GI50 [9] | GI50 [10] | GI50 [11] | GI50 [12] | GI50 [13] | GI50 [14] | GI50 [15] | GI50 [16] | GI50 [17] | GI50 [18] | GI50 [19] | GI50 [20] |
| --- | --- | --- | --- | --- | --- | --- | --- | --- | --- | --- | --- | --- | --- | --- | --- | --- | --- | --- | --- | --- |
| CC1(C)CN=C(Nc2ccc(F)c(F)c2)S1 | > 100 µM (inactive) | > 100 µM (inactive) | > 100 µM (inactive) | > 100 µM (inactive) | > 100 µM (inactive) | > 100 µM (inactive) | > 100 µM (inactive) | > 100 µM (inactive) | > 100 µM (inactive) | > 100 µM (inactive) | > 100 µM (inactive) | > 100 µM (inactive) | > 100 µM (inactive) | > 100 µM (inactive) | > 100 µM (inactive) | > 100 µM (inactive) | > 100 µM (inactive) | > 100 µM (inactive) | > 100 µM (inactive) | > 100 µM (inactive) |
| CN(CCCCN1CCCC1)CCCN(C)C(=O)Cc1ccc(Cl)c(Cl)c1 | 17.7 µM (inactive) | 13.1 µM (inactive) | 12.7 µM (inactive) | 3.3 µM (inactive) | 13.9 µM (inactive) | 8.91 µM (inactive) | 18.8 µM (inactive) | > 100 µM (inactive) | 2.56 µM (inactive) | 26.9 µM (inactive) | 19.1 µM (inactive) | 4.27 µM (inactive) | 26.7 µM (inactive) | 33.3 µM (inactive) | 4.74 µM (inactive) | 4.45 µM (inactive) | 7.94 µM (inactive) | 35.7 µM (inactive) | 23.7 µM (inactive) | 12.9 µM (inactive) |
| Cc1cc(Cc2cc(C)cc(C(C)(C)C)c2O)c(O)c(Cc2cc(C)cc(C(C)(C)C)c2O)c1 | 3.34 µM (inactive) | 0.931 µM (active) | 2.82 µM (inactive) | 2.54 µM (inactive) | 2.88 µM (inactive) | 1.41 µM (inactive) | 2 µM (inactive) | 2.85 µM (inactive) | 3.12 µM (inactive) | 3.24 µM (inactive) | 2.75 µM (inactive) | 3.66 µM (inactive) | 1.7 µM (inactive) | 3.33 µM (inactive) | 1.73 µM (inactive) | 2.55 µM (inactive) | 2.16 µM (inactive) | 3.37 µM (inactive) | 4.11 µM (inactive) | 3.15 µM (inactive) |
| Cn1c(N)c(/N=N/c2ccc(S(N)(=O)=O)cc2)c(=O)n(C)c1=O | > 100 µM (inactive) | 80.9 µM (inactive) | > 100 µM (inactive) | > 100 µM (inactive) | 40.9 µM (inactive) | > 100 µM (inactive) | > 100 µM (inactive) | > 100 µM (inactive) | > 100 µM (inactive) | > 100 µM (inactive) | > 100 µM (inactive) | > 100 µM (inactive) | 88.1 µM (inactive) | 79.8 µM (inactive) | > 100 µM (inactive) | > 100 µM (inactive) | > 100 µM (inactive) | 96.8 µM (inactive) | 81.8 µM (inactive) | 53.1 µM (inactive) |
| N#C/C(=C(\O)C(=O)O)c1ccc(-c2cccc3ccccc23)cc1 | > 100 µM (inactive) | > 100 µM (inactive) | > 100 µM (inactive) | 3.11 µM (inactive) | > 100 µM (inactive) | 1.51 µM (inactive) | > 100 µM (inactive) | > 100 µM (inactive) | > 100 µM (inactive) | > 100 µM (inactive) | > 100 µM (inactive) | > 100 µM (inactive) | > 100 µM (inactive) | > 100 µM (inactive) | 14.1 µM (inactive) | > 100 µM (inactive) | > 100 µM (inactive) | > 100 µM (inactive) | > 100 µM (inactive) | > 100 µM (inactive) |
| COC(=O)c1ccc(NCc2cc(O)ccc2O)cc1 | 9.18 µM (inactive) | 0.841 µM (active) | 6.73 µM (inactive) | 1.58 µM (inactive) | 15.9 µM (inactive) | 3.19 µM (inactive) | 6.71 µM (inactive) | 3.08 µM (inactive) | 4.63 µM (inactive) | 8.38 µM (inactive) | 4.39 µM (inactive) | 5.31 µM (inactive) | 11.2 µM (inactive) | 14 µM (inactive) | 1.51 µM (inactive) | 23.1 µM (inactive) | 16 µM (inactive) | 10.2 µM (inactive) | 22.7 µM (inactive) | 9.4 µM (inactive) |
| COc1ccc2nc3cc(Cl)ccc3c(NCCCNCCCNc3c4ccc(Cl)cc4nc4ccc(OC)cc34)c2c1 | 0.0131 µM (active) | 0.0128 µM (active) | 0.224 µM (active) | < 0.01 µM (active) | < 0.01 µM (active) | 0.329 µM (active) | 0.0604 µM (active) | 0.581 µM (active) | 0.0374 µM (active) | < 0.01 µM (active) | 0.0241 µM (active) | < 0.01 µM (active) | 0.0111 µM (active) | 0.0352 µM (active) | < 0.01 µM (active) | < 0.01 µM (active) | 0.0404 µM (active) | < 0.01 µM (active) | < 0.0179 µM (active) | < 0.01 µM (active) |
| OC1[C@@H]2[C@@H](O)CCCN2C[C@@H](O)[C@H]1O (stereo not given in full) | > 100 µM (inactive) | 19.5 µM (inactive) | > 100 µM (inactive) | > 100 µM (inactive) | > 100 µM (inactive) | > 100 µM (inactive) | > 100 µM (inactive) | > 100 µM (inactive) | > 100 µM (inactive) | > 100 µM (inactive) | > 100 µM (inactive) | > 100 µM (inactive) | > 100 µM (inactive) | > 100 µM (inactive) | > 100 µM (inactive) | > 100 µM (inactive) | > 100 µM (inactive) | > 100 µM (inactive) | > 100 µM (inactive) | > 100 µM (inactive) |
| Nc1nc2c(C(=O)O)c3ccc([N+](=O)[O-])cc3c(=O)n2c2ccccc12 | 39 µM (inactive) | 19.9 µM (inactive) | 14.5 µM (inactive) | 24.3 µM (inactive) | 22.5 µM (inactive) | 14.4 µM (inactive) | 40 µM (inactive) | 20.5 µM (inactive) | 27.2 µM (inactive) | 21.2 µM (inactive) | 24.5 µM (inactive) | 22.8 µM (inactive) | 33.8 µM (inactive) | 21 µM (inactive) | 42.1 µM (inactive) | 34.7 µM (inactive) | 24.9 µM (inactive) | 33.1 µM (inactive) | 28.5 µM (inactive) | 20.6 µM (inactive) |
| BrCCC[P+](c1ccccc1)(c1ccccc1)c1ccccc1 | 25.5 µM (inactive) | 3.34 µM (inactive) | 2.89 µM (inactive) | 3.83 µM (inactive) | 11.3 µM (inactive) | 9.66 µM (inactive) | 16.2 µM (inactive) | > 100 µM (inactive) | 4.61 µM (inactive) | > 78.7 µM (inactive) | 5.65 µM (inactive) | 8.2 µM (inactive) | 16.7 µM (inactive) | 83.4 µM (inactive) | > 30.5 µM (inactive) | 15.9 µM (inactive) | 26.7 µM (inactive) | > 100 µM (inactive) | 16.6 µM (inactive) | 13.5 µM (inactive) |
